Test results taken from US12492403B2, “Aptamers and the use thereof in the treatment of cancer” (FUNDACIÓN PARA LA INVESTIGACIÓN BIOMÉDICA DEL HOSPITAL …, priority 2018, dated 2025).

Legend:
Type in all cases: cell-based, human
MCF7 cells [1] = experiment: Cell viability by trypan blue exclusion; details: MCF7, 150 nM, 24 hours after transfection, vs control aptamer AT
Method: (§1) FIG. 9. Cell viability analysis by trypan blue exclusion. MCF7, MDA-MB-231, and MDA-MB-468 cells from different experiments were collected 24 hours after transfection, diluted 1:10 in trypan blue, and counted in a TC20 counter (BioRad, USA). The boxes represent the mean±the maximum and minimum of 12-14 independent experiments (**p<0.01, and ***p<0.001 with respect to the control aptamer AT). Trypan blue exclusion. Cells (live and dead) were collected in their corresponding medium, trypan blue (Sigma-Aldrich, USA) was added, and the cells were counted using the TC20 counter (BioRad, USA). Living cells are those which exclude the dye. The results were expressed as the number of living cells/mL. The cell lines were then transfected with the previously established concentrations and the number of living cells was determined 24 hours after transfection with […]2 or with the control aptamer AT by means of trypan blue exclusion.

MDA-MB-231 cells [2] = experiment: Cell viability by trypan blue exclusion; details: MDA-MB-231, 400 nM, 24 hours after transfection, vs control aptamer AT
Method: as §1

MDA-MB-468 cells [3] = experiment: Cell viability by trypan blue exclusion; details: MDA-MB-468, 50 nM, 24 hours after transfection, vs control aptamer AT
Method: as §1

MCF7 cells [4] = experiment: Transwell migration assay; details: MCF7, 150 nM, 24 hours migration
Method: (§2) FIGS. 13A, 13B and 13C. Effect of aptamer apMNKQ2 on the migration and invasion of breast cell lines. The three lines of study were seeded in 6-well plates at a density of 2.5×10^5 cells/well and transfected at 24 hours with apMNKQ2 at the established working concentrations. The cell lines were deprived of serum after 6 hours and collected and re-seeded (4×10^4 cells/well) after 24 hours in a transwell […], in order to perform migration and invasion assays, respectively. At 24 hours, the membranes of the transwell are stained with Hoechst and cells that have gone through the membranes are quantified using fluorescence microscopy (FIG. 13A). The boxes (FIGS. 13B and 13C) represent the mean±the maximum and minimum of 4-5 independent experiments (*p<0.05, **p<0.01, and ***p<0.001 with respect to the control aptamer AT).
(§3) Cell migration and invasion assays were performed using transwell (Corning, USA). The cells, previously transfected and incubated for 16 hours, were deprived of serum for 18 hours. After that time, they were collected, counted, and reseeded 4×10^4 cells in 300 μl of a serum-free complete medium inside the transwell (migration) or a transwell on which a layer of 100 μL of Matrigel (Corning, USA) (invasion) had previously been polymerized. […] Finally, two washes in PBS were performed, and 5 photographs of each membrane of the transwell were taken using a fluorescence microscope (Olympus IX70). The number of cells was analyzed using the imageJ program.
(§4) To analyze the effect of the aptamer on cell migration, experiments were carried out using transwells instead of the wound healing technique. […] At 18 hours, 40,000 cells are collected, counted, and seeded in small “baskets” in a serum-free medium, and these baskets are immersed in the well of the plate with complete serum, such that the serum acts as a chemoattractant and the cells migrate from the basket to the well, going through the membrane of the transwell. […]

MDA-MB-231 cells [5] = experiment: Transwell migration assay; details: MDA-MB-231, 400 nM, 24 hours migration
Method: as §2, §3, §4

MDA-MB-468 cells [6] = experiment: Transwell migration assay; details: MDA-MB-468, 50 nM, 24 hours migration
Method: as §2, §3, §4

[7] = system: MCF7, MDA-MB-231, and MDA-MB-468 cells; experiment: MTT activity after direct addition of aptamer (no transfectant); details: direct addition without transfectant, highest tested concentration (0.5, 1, and 2 μM tested), 48 hours
Method: FIG. 17. MTT activity measurement in breast lines after the direct addition of apMNKQ2. MCF7, MDA-MB-231, and MDA-MB-468 cells were seeded in 96-well plates at a density of 10^4 cells/well, and apMNKQ2 was added at concentrations of 0.5, 1, and 2 μM at 24 hours. MTT assays were performed after 48 hours. The graphs represent the mean of 3 independent experiments, and are normalized with respect to the control of the untreated cells.
MTT activity. The cells were seeded in 96-well plates and after having been transfected, the culture medium was removed and 100 μL/well of MTT at 1 mg/ml in culture medium were added. The plates were incubated for 90 minutes in an incubator with a moisture-saturated environment at 37° C. and 5% CO2/[…] and 100 μL/well of a lysis solution (10% SDS and 10 mM HCl) were added for dissolving the crystals. After 48 hours, the reduction of MTT was determined by means of spectrophotometry in Infinite F200 (TECAN, Switzerland) at 540 nm.
The signal of the aptamer with lipofectamine (FIG. 16B) is more intense and less scattered than when the aptamer enters directly (FIG. 16A). The difference is more evident in the aggregates co-localized in the nucleus. […]

5′TGGGGTGGGCGGGCGGGGGTGGGGGTGGT-3′ (DNA, backbone and methylation of C not given here; further chemistry not fully specified) [apMNKQ2]
total number of living cells (trypan blue exclusion) (MCF7 cells [1]): significant drop
total number of living cells (trypan blue exclusion) (MDA-MB-231 cells [2]): very slight drop
total number of living cells (trypan blue exclusion) (MDA-MB-468 cells [3]): significant drop
inhibition of migration (transwell) (MCF7 cells [4]): in a statistically significant manner
inhibition of migration (transwell) (MDA-MB-231 cells [5]): in a statistically significant manner
inhibition of migration (transwell) (MDA-MB-468 cells [6]): capable of inhibiting migration
reduction of MTT activity [7]: 15%
